# Experimental data reported in patent US11845992B2, “Compositions and methods for predicting response and resistance to CDK4/6 inhibition” (DANA-FARBER CANCER INSTITUTE, INC., priority 2017, dated 2023).
# “Also recorded” adds a separate entry of the source. Like-named read-outs stand apart in the source and are kept apart here.
# Columns and labels:
# [1] = test system: GFP-positive parental T47D cells; experiment: GFP co-culture resistance transmission assay; settings: 72 hours co-culture, exosome production inhibited
# Procedure: FIG. 11A is a bar graph, wherein cells were treated with either DMSO, 10 μM GW4869 or 10 μM manumycin A for 72 hours prior to exosome harvest and quantification. […] Subsequently, cells were harvested and analyzed by flow cytometry for GFP expression and cell cycle profile.
# [2] = test system: T47D cells; experiment: Growth inhibition assay, 5 days, normalized to DMSO; type: cell-based; settings: for change of GI50 by CDK6 overexpression: CDK6 overexpressing vs parental T47D; for change of GI50 by miR-432 overexpression: parental T47D overexpressing miR-432 (FIG. 10A)
# Procedure: (§1) Subsequently, cell growth was quantified and normalized to DMSO treated control.
# Subsequently, cell growth was quantified and normalized to DMSO treated control. BLISS Synergy/antagonism score was modelled using Combenefit software. FIG. 12C is a graph, wherein T47D parental and resistant cells were treated with escalating dose of galunisertib for 5 days. Subsequently, cell growth was quantified and normalized to DMSO treated control.
# [3] = test system: T47D cells; experiment: Flow cytometry cell cycle analysis; type: cell-based
# [4] = test system: estrogen receptor positive (ER+) and HER2 negative breast cancer; settings: patients; previous results; cited from earlier work
# [5] = test system: T47D cells; experiment: cells; type: cell-based; settings: for CC50: Homo sapiens, T47D
# Procedure: Cells were incubated for 14 to 21 days to allow colony formation. Colonies were fixed and permeabilised using Carnoy's fixative (75% methanol, 25% Acetic acid) and stained with 1% crystal violet and counted.
# Cells stably expressing shRNA, miRNA or cDNA were generated using lentiviral transfection, as previously described using the pLKO.1 or pLEX-307 backbone (Moffat, J. et al., Cell 124: 1283-1298 (2006)). Multiple stable cell lines were generated for each protein knockdown; shRNA sequences were obtained from the RNAi Consortium database (Moffat, J. et al., Cell 124: 1283-1298 (2006)). CDK6 GeneArt cDNA sequences (K43M (Hu, M. G. et al., Blood 117: 6120-6131 (2011)), S178P (Bockstaele, L. et al., Mol. Cell Biol. 29: 4188-4200 (2009)) and R31C (Hu, M. G. et al., Blood 117: 6120-6131 (2011)) were purchased from ThermoFisher and cloned into the pLEX-307 backbone. For miRNA overexpression, ˜500 bp of DNA encompassing each miRNA sequence was PCR purified and cloned into the pLEX-307 backbone, miRNA mimics were purchased and transfected into cells as a positive control for miRNA detection. Protein expression/miRNA expression/knockdown was confirmed after 5 days of selection in puromycin (1 μg/ml for both T47D and MCF7).
# CDK6 by CRIPSR/Cas9 was performed as previously described (Sanjana, N. E. et al., Nat. Meth 11: 783-784 (2014)). The following sgRNA sequence was cloned into the LentiCRIPSR v2 vector-sgCDK6-7 (targeting the 5′UTR): […] (SEQ ID NO: 2). Cells were selected using 1 μg/ml puromycin and protein knockout confirmed after ˜12 days.
# [6] = test system: CDK6 protein in T47D cells; experiment: Western blot of CDK6 protein expression; type: cell-based; settings: palbociclib exposure up to 6 days
# Procedure: Cells were lysed with RIPA buffer (10 mM Tris, pH 7.5, 1% Nonidet-P40, 2 mM Na2EDTA, 150 mM NaCl) plus protease inhibitors (Calbiochem) and protein estimation was performed by Pierce assay. Gel electrophoresis was performed with Bis-Tris 4-12% (v/v) polyacrylamide gradient gels (ThermoFisher). Samples were transferred onto Immobilin-P PVDF membrane (EMD Millipore), and probed with primary antibodies against either CDK1, CDK2, CDK4, CDK6, Cyclin D1, Cyclin D3, Cyclin E, p2′7, SMAD3, SMAD4, TGFβ, TGFβR3 (Santa Cruz), pRB (Cell signaling) or actin (Genescript). Goat anti-rabbit or goat anti-mouse HRP-linked secondary antibodies (1:1000; Dako) and ECL reagent (Perkin Elmer) were used for protein detection. Cytokines were analyzed using the Human Cytokine Array Kit performed per manufactures instructions (R&D Systems).
# [7] = test system: palbociclib resistant MCF7 xenografts; experiment: Palbociclib resistant MCF7 xenograft with treatment holiday; type: in vivo, mice; settings: 100 mg/kg/day oral gavage, after 28 days treatment holiday
# Procedure: Female nude mice (NCr-Foxn1^NU, Tactonic Laboratories) were maintained and handled in isolators under specific pathogen-free conditions for tissue distribution and efficacy studies in accordance with local guidelines and therapeutic interventions approved by the Animal Care and Use Committee of Dana-Farber Cancer Institute. Mice were implanted with 17β-estradiol pellets (0.36 mg, 90-day release, Innovative Research of America) prior to cell implantation. […] Tumors were measured throughout the experiment and relative tumor volume calculated.
# [8] = test system: T47D cells; experiment: Annexin V apoptosis assay; settings: 48 hours
# [9] = test system: MCF7 cells; experiment: Growth inhibition assay, 5 days, normalized to DMSO; type: cell-based; settings: for change of GI50 by CDK6 overexpression: CDK6 overexpressing vs parental MCF7 (printed MCG-7); for change of GI50 by miR-432 overexpression: parental MCF7 overexpressing miR-432 (FIG. 10B)
# Text: as §1
# [10] = test system: parotid cancer harboring CDKN2A/B loss; settings: one patient; cited from earlier work
smiles,measurement,setting,value
O=C(/C=C/c1ccc(/C=C/C(=O)Nc2ccc(C3=NCCN3)cc2)cc1)Nc1ccc(C2=NCCN2)cc1 [GW4869],G1 population of GFP-positive parental cells co-cultured with resistant cells,[1],significant increase
Cc1cccc(-c2nn3c(c2-c2ccnc4ccc(C(N)=O)cc24)CCC3)n1 [galunisertib],interaction with palbociclib (BLISS synergy/antagonism),"[2]; combined with palbociclib, parental and resistant T47D cells",significantly antagonistic
same,effect on growth when used alone,"[2]; parental or resistant T47D cells, 5 days",no effect
same,effect on palbociclib G1 arrest,"[3]; in combination with palbociclib, T47D, 24 hours",prevent G1 arrest
N#Cc1ccc(C(c2ccc(C#N)cc2)n2cncn2)cc1 [letrozole],progression free survival,[4],14.5 months
CCCC[C@@H](C)/C=C(C)/C=C(\C)C(=O)NC1=C[C@@](O)(/C=C/C=C/C=C/C(=O)NC2=C(O)CCC2=O)[C@@H]2O[C@@H]2C1=O [manumycin A],G1 population of GFP-positive parental cells co-cultured with resistant cells,[1],significant increase
CC(=O)c1c(C)c2cnc(Nc3ccc(N4CCNCC4)cn3)nc2n(C2CCCC2)c1=O [palbociclib],CC50,"[5]; read-out: LC50, survival after palbociclib treatment, CDK6 knockout T47D cells (sgK6-7)",34.2 nM
same,CC50,"[5]; read-out: LC50, survival after palbociclib treatment, INK4-insensitive CDK6 (R31C) T47D cells",632 nM
same,CC50,"[5]; read-out: LC50, survival after palbociclib treatment, constitutively active CDK6 (S178P) T47D cells",269 nM
same,CC50,"[5]; read-out: LC50, survival after palbociclib treatment, control T47D cells (sgNT)",66.2 nM
same,CC50,"[5]; read-out: LC50, survival after palbociclib treatment, kinase dead CDK6-expressing T47D cells (K43M)",26.6 nM
same,CC50,"[5]; read-out: LC50, survival after palbociclib treatment, wild-type CDK6 (WT) T47D cells",229 nM
same,survival after palbociclib treatment compared to non-target shRNA control,[5]; shRNA-mediated CDK6-depleted T47D cells,significantly lower survival
same,effect on CDK6 expression,[6],no observable effect
same,tumor burden after re-introduction of treatment,[7],substantial regression of all but 1 tumor; also recorded: marked decrease
same,change of GI50 by CDK6 overexpression,[2],significantly increased
same,change of GI50 by miR-432 overexpression,[2],significantly increased
same,apoptosis,[8]; CDK6 knockdown and knockout T47D cells,marked increase
same,effect on apoptotic fraction,[8]; shNT-expressing T47D cells,no effect
same,sub-G1 DNA content compared to control cells,"[3]; CDK6-depleted T47D cells, 100 nM, 24 hours",significantly more
same,cells in the G1 phase of the cell cycle,"[3]; T47D, 100 nM, initial exposure (week 0)",more than 90%
same,cell cycle effect in parental cells,"[3]; parental T47D, 100 nM or 300 nM, persisted for 14 days",sustained G1 arrest
same,cell cycle arrest on re-challenge,"[3]; resistant cells after 6 weeks in drug-free media, 100 nM for 24 hours",indistinguishable from parental cells
same,change of GI50 by CDK6 overexpression,[9],significantly increased
same,change of GI50 by miR-432 overexpression,[9],significantly increased
CN(C)C(=O)c1cc2cnc(Nc3ccc(N4CCNCC4)cn3)nc2n1C1CCCC1 [ribociclib],change of GI50 by CDK6 overexpression,[2],significantly increased
same,cross-resistance of palbociclib resistant cells,[2]; palbociclib resistant (100 nM) T47D vs parental,significantly more resistant
same,change of GI50 by miR-432 overexpression,[2],significantly increased
same,clinical response,[10],partial response
same,change of GI50 by CDK6 overexpression,[9],significantly increased
same,cross-resistance of palbociclib resistant cells,[9]; palbociclib resistant (100 nM) MCF7 vs parental,significantly more resistant
same,change of GI50 by miR-432 overexpression,[9],significantly increased
